The values below come from PubChem BioAssay AID1919014 (Molecular Pharmacology Branch, DTP, NCI, 2023).

Each structure is given as a SMILES string. Values joined by “and” are separate entries in the source; they are usually repeats but may differ in a detail not shown here. Equal entries are not always repeated.

What is called viability, T/C is the ratio of treated to control. By IC50 is commonly meant the concentration that inhibits the measured activity by half.

The subject of this test is NCI-H1341 complex spheroids, percent test/control. The experiment in a line: Anticancer human tumor NCI-H1341 cell line growth inhibition [AhR].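 For all read-outs here: spheroids exposed to agents for seven days before readout.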 To be noted: for viability, T/C: stronger effect = lower value; for IC50: curve of compound. The text has this: Multicellular complex tumor spheroid response to aryl hydrocarbon receptor antagonists in combination with a variety of drugs and investigational agents in selected tumor cell lines
The current study was undertaken to assess response to aryl hydrocarbon receptor antagonists in combination with standard-of-care drugs and investigational agents in solid tumor complex spheroid models. Complex spheroids include a stromal component modeled by human endothelial cells (HUVEC) and fibroblasts modeled by human mesenchymal stem cells (MSCs). The concentration ranges selected for each drug and investigational agent were based upon clinically achievable concentrations if the clinical Cmax of the agent was known.
Compounds. The drugs and investigational agents: BAY 2416964 (NSC825713), GNF351 (NSC835774), CH-223191 (NSC835775), CPI-455 (NSC825282), aza-TdCyd (NSC777586), decitabine (NSC127716), belinostat (NSC758774), entinostat (NSC756642), pevonedistat (NSC761192), tazemetostat (NSC777109), talazoparib (NSC765396), olaparib (NSC753686), selinexor (NSC780203), nedisertib (M3814, NSC802822), bortezomib (NSC756655), venetoclax (NSC766270), doxorubicin (NSC123127), elimusertib (BAY189344, NSC800525), ceralasertib (AZD6738, NSC777638), TAK-243 (NSC785004), alisertib (NSC759677), etoposide (NSC141540), topotecan (NSC609699), eribulin (NSC707389), gemcitabine (NSC613327), carboplatin (NSC241240), cisplatin (NSC119875), and SN-38 (NSC673596) were obtained from the National Cancer Institute (NCI) Developmental Therapeutics Program Chemical Repository (32). The FDA-approved anticancer drug set is available from the Developmental Therapeutics Program at https://dtp.cancer.gov/organization/dscb/obtaining/available plates.htm. […] The stock solutions were prepared in dimethyl sulfoxide (DMSO, Sigma-Aldrich, St. Louis, MO, cat. D2650), except for the platinum compounds which were prepared in saline (Quality Biological, Gaithersburg, MD, cat. 114-055-101), at 800-fold the tested concentration and stored at -70 degrees C prior to their use. All drugs and investigational agents were tested over a range starting from a high concentration at or near the clinical Cmax and decreasing in half-log increments. If the clinical Cmax for an agent had not been determined, the highest concentration tested was 10 microM (Table 1).
Cell Culture. All cells were maintained in an incubator at 37 degrees C and 5% CO2 with 95% humidity. The PDC lines were cultured according to standard operating procedures established by the NCI PDMR (https://pdmr.cancer.gov). Briefly, all PDCs were thawed and cultured in Matrigel-coated flasks prepared with a working solution of 1X Ham's F-12 nutrient mix, without supplementation (Invitrogen, Waltham, MA, cat. 11765054), 100 U/mL penicillin-streptomycin (Invitrogen, cat. 15140122), and 2.5% Matrigel (Corning Inc., Corning, NY, cat. 354248) for the first three passages. All PDCs were cultured in complete DMEM/F-12 media containing advanced DMEM/F-12 (Invitrogen, cat. 12634028), 4.9% defined fetal bovine serum, heat inactivated (HyClone Laboratories Inc., Logan, UT, cat. SH30070.03HI), 389 ng/mL hydrocortisone (Sigma-Aldrich, cat. H4001), 9.7 ng/mL human EGF recombinant protein (Invitrogen, cat. PHG0313), 23.4 microg/mL adenine (Sigma-Aldrich, cat. A2786), 97.3 U/mL penicillin-streptomycin (Invitrogen, cat. 15140122), 1.9 mM L-glutamine (Invitrogen, cat. 25030081), and 9.7 microM Y-27632 dihydrochloride (Tocris Bioscience, Bristol, United Kingdom, cat. 1254). The PDCs were cultured in complete DMEM/F12 media without 10 microM Y-27632 dihydrochloride for at least two passages prior to the screen. The established cell lines NCI-H1341 and […] were cultured in DMEM/F-12, HEPES (Invitrogen, cat. 11330032), 5% defined fetal bovine serum (HyClone Laboratories Inc., cat. SH30070.03), ITS premix universal culture supplement [insulin (5 microg/mL), transferrin (5 microg/mL), and selenious acid (5 ng/mL)] […]

Regarding `Cn1ncnc1C1c2n[nH]c(=O)c3cc(F)cc(c23)NC1c1ccc(F)cc1` (stereo not drawn), the half-inhibitory concentration (IC50) is above 100 nM. Under “compound 0.000316 µM”, the viability, T/C is 125% and 98% and 95.9%. Further, the viability, T/C (compound 0.001 µM) was 88.8% and 101% and 99%. For the setting “compound 0.00316 µM”, the viability, T/C is 97.2% and 99.4% and 99.8%. The viability, T/C (compound 0.01 µM) was 96.9% and 109% and 95.9%. In addition, the viability, T/C (compound 0.0316 µM) is 85.5% and 74% and 100%. Besides, where the note is “compound 0.1 µM”, the viability, T/C is 89.4% and 76.9% and 71.7%.

As to `NS(=O)(=O)OCC1CC(n2ccc3c(NC4CCc5ccccc54)ncnc32)CC1O` (stereo not drawn), the IC50 was 39.2 nM and < 31.6 nM. In addition, the viability, T/C (compound 0.0316 µM) is 52.1% and 44.4% and 32.1%. Moreover, under “compound 0.1 µM”, the viability, T/C is 41.7% and 37.3% and 22.6%. Under “compound 0.316 µM”, the viability, T/C was 27.1% and 18% and 11.2%. Moreover, for the setting “compound 1 µM”, the viability, T/C was 12.3% and 12.1% and 6.23%. The viability, T/C (compound 3.16 µM) was 11.9% and 7.68% and 3.37%. The viability, T/C (compound 10 µM) was 11.4% and 4.21% and 2.28%.

As for `Nc1ccccc1NC(=O)c1ccc(CNC(=O)OCc2cccnc2)cc1`, the concentration for half-maximal inhibition (IC50) is 457 nM and 718 nM and 183 nM. Further, the viability, T/C (compound 0.0316 µM) is 86.1% and 87.6% and 78.7%. Further, the viability, T/C (compound 0.1 µM) is 92.3% and 84.5% and 75%. The viability, T/C (compound 0.316 µM) is 59.9% and 74.8% and 27.3%. Where the note is “compound 1 µM”, the viability, T/C was 24.3% and 40.5% and 16.6%. The viability, T/C (compound 3.16 µM) was 5.76% and 6.13% and 5.26%. In addition, the viability, T/C (compound 10 µM) is 0.69% and 0.9% and 0.3%.

Turning to `Nc1ccn(C2OC(CO)C(O)C2(F)F)c(=O)n1` (stereo not drawn), the half-maximal inhibitory concentration (IC50) was below 31.6 nM. Further, the viability, T/C (compound 0.0316 µM) was 27.5% and 32.2% and 32.9%. The viability, T/C (compound 0.1 µM) is 26.6% and 28.1% and 35.2%. Moreover, the viability, T/C (compound 0.316 µM) was 24.2% and 25.8% and 36.1%. The viability, T/C (compound 1 µM) is 24.8% and 27.9% and 31.6%. Besides, for the setting “compound 3.16 µM”, the viability, T/C was 23.1% and 24.4% and 33.5%. The viability, T/C (compound 10 µM) was 21.6% and 21.2% and 32.3%.

With `Nc1ncn(C2CC(O)C(CO)O2)c(=O)n1` (stereo not drawn), the IC50 is 231 nM and 466 nM and 261 nM. Also, where the note is “compound 0.00316 µM”, the viability, T/C is 107% and 86.3% and 88.1%. The viability, T/C (compound 0.01 µM) is 95.4% and 112% and 100%. Further, where the note is “compound 0.0316 µM”, the viability, T/C is 102% and 89.2% and 69.8%. In addition, the viability, T/C (compound 0.1 µM) was 64.2% and 72.3% and 74.5%. For the same molecule, for the setting “compound 0.316 µM”, the viability, T/C is 50.6% and 52.8% and 43.7%. Moreover, the viability, T/C (compound 1 µM) is 37% and 45.7% and 25.6%.

As to `Nc1ncn(C2CC(O)C(CO)S2)c(=O)n1` (stereo not drawn), the IC50 was > 300 nM and 294 nM. Besides, the viability, T/C (compound 0.000949 µM) is 109% and 96.2% and 95%. The viability, T/C (compound 0.003 µM) was 90.5% and 73.4% and 100%. Further, the viability, T/C (compound 0.00949 µM) was 115% and 102% and 104%. For the same molecule, the viability, T/C (compound 0.03 µM) is 105% and 80.6% and 104%. For the same molecule, the viability, T/C (compound 0.0949 µM) was 89.2% and 68.3% and 79%. Under “compound 0.3 µM”, the viability, T/C is 68.2% and 49.5% and 62%.

Consider `O=C(C=Cc1cccc(S(=O)(=O)Nc2ccccc2)c1)NO`, for which the IC50 was 425 nM and 423 nM and 295 nM. Also, under “compound 0.0316 µM”, the viability, T/C was 91.7% and 96.1% and 95.8%. In addition, where the note is “compound 0.1 µM”, the viability, T/C was 87.7% and 85.4% and 80.2%. The viability, T/C (compound 0.316 µM) is 61.3% and 59% and 42.5%. Moreover, under “compound 1 µM”, the viability, T/C is 17% and 24% and 28%. Further, for the setting “compound 3.16 µM”, the viability, T/C is 7.15% and 7.86% and 8.15%. Also, the viability, T/C (compound 10 µM) was 1.07% and 0.78% and 0.36%.

`O=C(C=Cn1cnc(-c2cc(C(F)(F)F)cc(C(F)(F)F)c2)n1)NNc1cnccn1`: the IC50 is 122 nM and 51.9 nM and 59 nM. Moreover, where the note is “compound 0.00949 µM”, the viability, T/C is 92.3% and 73.3% and 75.8%. The viability, T/C (compound 0.03 µM) is 77.8% and 68.4% and 79.9%. In addition, the viability, T/C (compound 0.0949 µM) was 61.5% and 30% and 30.5%. For the same molecule, for the setting “compound 0.3 µM”, the viability, T/C was 12.5% and 17.1% and 6.76%. Under “compound 0.949 µM”, the viability, T/C is 8.28% and 8.73% and 4.72%. Further, the viability, T/C (compound 3 µM) is 6.13% and 7.12% and 2.87%.

For the molecule `O=C(c1cc(Cc2n[nH]c(=O)c3ccccc23)ccc1F)N1CCN(C(=O)C2CC2)CC1`, the IC50 was above 10000 nM. Also, for the setting “compound 0.0316 µM”, the viability, T/C is 97.7% and 93.7% and 111%. Moreover, for the setting “compound 0.1 µM”, the viability, T/C was 100% and 83.7% and 108%. Also, the viability, T/C (compound 0.316 µM) was 105% and 87.7% and 90.6%. Moreover, the viability, T/C (compound 1 µM) was 95.6% and 88% and 110%. The viability, T/C (compound 3.16 µM) was 102% and 86.6% and 83.1%. For the setting “compound 10 µM”, the viability, T/C is 76.6% and 70.3% and 83.6%.
